{"source": "patent US20230255864A1", "about": "“NOVEL COMPOSITIONS COMBINING HEMP DERIVATIVES AND AT LEAST ONE PEPTIDE AND USE THEREOF” (FRANCE COSMEPHYL-LAB, priority 2020, published 2023)", "tested_on": "murine macrophages (RAW 267.4 cell line) stimulated with LPS from E. coli", "test": "In vitro anti-inflammatory test: inhibition of NO production in LPS-stimulated murine macrophages (Griess reaction)", "type": "cell-based", "conditions": "for Anti-inflammatory ratio: ratio between anti-inflammatory activity and toxicity (IC50 NO release and IC50 cell viability)", "source_text": "Low-grade inflammation is strongly implicated in degenerative processes in human skin such as photoaging and atopy. The reduction of low-intensity inflammatory reactions by topical products may be necessary in the event of cutaneous aggression, to obtain optimal healing and restore the physiological balance of human skin. In order to identify new anti-inflammatory candidates, an in vitro anti-inflammatory test was developed with a murine cell line: the murine macrophage test RAW 267.4. This test was used to monitor the inhibitory effects of chemical compounds or natural extracts on the low-intensity inflammatory cascade leading to overproduction of nitrogen oxide (NO) in the endothelial wall of blood vessels.\nThe study was carried out to evaluate the ability of cannabidiol, palmitoyl tripeptide-8 (active ingredient in Neutrazen™), and their mixture to inhibit the pro-inflammatory cascade leading to the production of NO in murine macrophages stimulated by liposaccharides (LPS).\nThe in vitro anti-inflammatory test is based on the ability of murine macrophages to generate a strong inflammatory response when stimulated by antigens such as LPS. Immobilized murine macrophages (RAW 267.4 cell line) are stimulated with LPS from E. coli and exposed for 24 hours. At the end of the incubation period, the production of NO is evaluated indirectly by measuring the accumulation of nitrite/nitrate, stable final products of the oxidation of NO, in the culture medium using a method spectrophotometric based on the Griess reaction.\nMURINS RAW 267.4 Macrophage cell line (Sigma-Aldrich, No. P6110401, Lot. 091006), low number of passages (less than 50).\nComplete medium: DMEM with stabilized L-glutamine (Dulbecco's Minimum Essential Medium, PAN BIOTECH. Lot 974251) supplemented with Penicillin 100 IU/ml and streptomycin 100 μg/m1 (PAN BIOTECH, Lot 225614), and 10% inactivated calf serum (PAN BIOTECH, Lot P460518), pH 7.2, freshly prepared, stored for less than 3 weeks.\nCannabidiol (CBD) is diluted in DMSO (10 mg/mL storage solution), and subjected to an ultrasonic bath for 20 minutes. The Neutrazen™ solution is diluted in PBS (Phosphate buffer saline, Sigma-Aldrich).\nThe negative control: DMSO 1% The positive control: Dexamethasone (Sigma-Aldrich) 1-5-10-50-100 μM.\nRAW 267.4 murine macrophages were inoculated into 48-well tissue culture plates at a concentration of 1.10^5 cells/ml (200 μl/well) and incubated for 24 hours at 37° C. (5% CO2).\nAt the end of the incubation period, the culture medium was replaced with 200 μl of medium containing the appropriate concentrations of the material to be tested, and the cells were incubated at 37° C. (5% CO2) for one hour.\nAt the end of the incubation period, pro-inflammatory E. coli LPS was added to the cell cultures (1 μg/ml. Then the cells were incubated at 37° C. (5% CO2) for 24 hours.\nThe amount of NO released was measured in the culture supernatant by the Griess reaction. 100 μl of the supernatants were transferred into the wells of a 96-well tissue culture plate, and modified Griess reagent (SIGMA-ALDRICH) were added to each well. After a period of 15 min at room temperature, the Optical Density (OD) of each well was read at a wavelength of 540 nm by an Infinite M200 Pro fluorescence-luminescence reader (TECAN).\nThe concentrations of test material causing a 50% decrease in NO release (IC50 (NO release)) and a 50% decrease in cell viability (IC50 (cell viability)) respectively were calculated using TableCurve software Version 2.0.\nThe anti-inflammatory ratio corresponds to the ratio between anti-inflammatory activity and toxicity. It is expressed as follows: […]\nAnalysis of the anti-inflammatory activity and of the cell viability of the cannabidiol/palmitoyl tripeptide-8 (Neutrazen™) association in a mixture by isobologram analysis.", "note": "Where “and” joins values, the source holds several entries; their conditions need not be identical. Equal values may be shown once."}
{"smiles": "C=C(C)[C@@H]1CCC(C)=C[C@H]1c1c(O)cc(CCCCC)cc1O", "note": "[CBD]", "values": [{"measurement": "NO production (% as compared to the negative control)", "setting": "CBD 0.01 weight % in mixture with NeutraZen 0.01%", "result": "94.48% and 98.73% and 100.63%"}, {"measurement": "NO production (% as compared to the negative control)", "setting": "CBD 0.01 weight % in mixture with NeutraZen 0.025%", "result": "98.77% and 101.91% and 100.00%"}, {"measurement": "NO production (% as compared to the negative control)", "setting": "CBD 0.01 weight % in mixture with NeutraZen 0.05%", "result": "100.00% and 103.82% and 103.16%"}, {"measurement": "NO production (% as compared to the negative control)", "setting": "CBD 0.01 weight % in mixture with NeutraZen 0.1%", "result": "101.23% and 103.82% and 98.10%"}, {"measurement": "NO production (% as compared to the negative control)", "setting": "CBD 0.025 weight % in mixture with NeutraZen 0.01%", "result": "87.12% and 89.17% and 92.41%"}, {"measurement": "NO production (% as compared to the negative control)", "setting": "CBD 0.025 weight % in mixture with NeutraZen 0.025%", "result": "92.64% and 96.18% and 96.84%"}, {"measurement": "NO production (% as compared to the negative control)", "setting": "CBD 0.025 weight % in mixture with NeutraZen 0.05%", "result": "93.87% and 100.00% and 98.10%"}, {"measurement": "NO production (% as compared to the negative control)", "setting": "CBD 0.025 weight % in mixture with NeutraZen 0.1%", "result": "103.07% and 101.27% and 100.63%"}, {"measurement": "NO production (% as compared to the negative control)", "setting": "CBD 0.05 weight % in mixture with NeutraZen 0.01%", "result": "84.66% and 85.99% and 88.61%"}, {"measurement": "NO production (% as compared to the negative control)", "setting": "CBD 0.05 weight % in mixture with NeutraZen 0.025%", "result": "84.66% and 87.90% and 87.34%"}, {"measurement": "NO production (% as compared to the negative control)", "setting": "CBD 0.05 weight % in mixture with NeutraZen 0.05%", "result": "84.05% and 86.62% and 87.97%"}, {"measurement": "NO production (% as compared to the negative control)", "setting": "CBD 0.05 weight % in mixture with NeutraZen 0.1%", "result": "79.75% and 84.71% and 82.28%"}, {"measurement": "NO production (% as compared to the negative control)", "setting": "CBD 0.1 weight % in mixture with NeutraZen 0.01%", "result": "80.37% and 77.07% and 85.44%"}, {"measurement": "NO production (% as compared to the negative control)", "setting": "CBD 0.1 weight % in mixture with NeutraZen 0.025%", "result": "79.75% and 80.89% and 82.28%"}, {"measurement": "NO production (% as compared to the negative control)", "setting": "CBD 0.1 weight % in mixture with NeutraZen 0.05%", "result": "79.75% and 79.62% and 83.54%"}, {"measurement": "NO production (% as compared to the negative control)", "setting": "CBD 0.1 weight % in mixture with NeutraZen 0.1%", "result": "72.39% and 74.52% and 74.68%"}, {"measurement": "NO production (% as compared to the negative control)", "setting": "CBD 0.25 weight % in mixture with NeutraZen 0.01%", "result": "53.37% and 61.15% and 60.76%"}, {"measurement": "NO production (% as compared to the negative control)", "setting": "CBD 0.25 weight % in mixture with NeutraZen 0.025%", "result": "47.24% and 49.04% and 51.90%"}, {"measurement": "NO production (% as compared to the negative control)", "setting": "CBD 0.25 weight % in mixture with NeutraZen 0.05%", "result": "47.24% and 52.87% and 47.47%"}, {"measurement": "NO production (% as compared to the negative control)", "setting": "CBD 0.25 weight % in mixture with NeutraZen 0.1%", "result": "50.92% and 43.95% and 50.00%"}, {"measurement": "NO production (% as compared to the negative control)", "setting": "CBD 0.5 weight % in mixture with NeutraZen 0.01%", "result": "0% and 0.63%"}, {"measurement": "NO production (% as compared to the negative control)", "setting": "CBD 0.5 weight % in mixture with NeutraZen 0.025%", "result": 0, "unit": "%"}, {"measurement": "NO production (% as compared to the negative control)", "setting": "CBD 0.5 weight % in mixture with NeutraZen 0.05%", "result": "0% and 4.46% and 1.27%"}, {"measurement": "NO production (% as compared to the negative control)", "setting": "CBD 0.5 weight % in mixture with NeutraZen 0.1%", "result": "0% and 1.27%"}, {"measurement": "NO production (% as compared to the negative control)", "setting": "CBD 1 weight % in mixture with NeutraZen 0.01%", "result": 0, "unit": "%"}, {"measurement": "NO production (% as compared to the negative control)", "setting": "CBD 1 weight % in mixture with NeutraZen 0.025%", "result": 0, "unit": "%"}, {"measurement": "NO production (% as compared to the negative control)", "setting": "CBD 1 weight % in mixture with NeutraZen 0.05%", "result": 0, "unit": "%"}, {"measurement": "NO production (% as compared to the negative control)", "setting": "CBD 1 weight % in mixture with NeutraZen 0.1%", "result": 0, "unit": "%"}, {"measurement": "NO production (% as compared to the negative control)", "setting": "CBD 2.5 weight % in mixture with NeutraZen 0.01%", "result": 0, "unit": "%"}, {"measurement": "NO production (% as compared to the negative control)", "setting": "CBD 2.5 weight % in mixture with NeutraZen 0.025%", "result": 0, "unit": "%"}, {"measurement": "NO production (% as compared to the negative control)", "setting": "CBD 2.5 weight % in mixture with NeutraZen 0.05%", "result": 0, "unit": "%"}, {"measurement": "NO production (% as compared to the negative control)", "setting": "CBD 2.5 weight % in mixture with NeutraZen 0.1%", "result": 0, "unit": "%"}, {"measurement": "IC50-NO release", "setting": "non-linear regression of 3 series of experiments, weight %, for mixtures CBD concentration at the fixed Neutrazen concentration", "result": "0.319 ± 0.006", "unit": "%"}, {"measurement": "Anti-inflammatory ratio", "result": "<1"}, {"measurement": "Anti-inflammatory ratio", "setting": "listed as cannabidiol", "result": "less than 1"}, {"measurement": "NO production (% as compared to the negative control)", "setting": "sample alone at 0.01 weight %", "result": "99.39% and 100.64% and 102.53%"}, {"measurement": "NO production (% as compared to the negative control)", "setting": "sample alone at 0.025 weight %", "result": "96.93% and 97.45% and 98.10%"}, {"measurement": "NO production (% as compared to the negative control)", "setting": "sample alone at 0.05 weight %", "result": "97.55% and 89.17% and 93.04%"}, {"measurement": "NO production (% as compared to the negative control)", "setting": "sample alone at 0.1 weight %", "result": "95.09% and 99.36% and 99.37%"}, {"measurement": "NO production (% as compared to the negative control)", "setting": "sample alone at 0.25 weight %", "result": "77.91% and 80.25% and 81.65%"}, {"measurement": "NO production (% as compared to the negative control)", "setting": "sample alone at 0.5 weight %", "result": "2.45% and 5.10% and 2.53%"}, {"measurement": "NO production (% as compared to the negative control)", "setting": "sample alone at 1 weight %", "result": "0.61% and 1.91% and 1.90%"}, {"measurement": "NO production (% as compared to the negative control)", "setting": "sample alone at 2.5 weight %", "result": "0.00% and 2.55% and 1.27%"}]}
